Data on 17 molecules can be found in PubChem BioAssay (NCI).

“And” between values parts separate entries of the source, which are not always exact repeats. Equal entries are not always repeated.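 Dose response: 5 concentrations. Exposure: 48 h. Format: 96-well plates. Endpoint: linear interpolation; highest concentration if not reached. GI50 = concentration required for 50% inhibition of growth. At the TGI there is no net growth.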

The subject of the experiment is MDA-N. As to the kind of experiment: DTP human tumour cell line panel, 48 h.
`Cc1nc(C(N)=S)sc1C(=O)C/C(=N/N)C(=O)Nc1cccc(Cl)c1C`: the TGI (usually the concentration at which net growth stops) was more than 100 µM.

On to `c1nnc(NCNc2nncs2)s1`, for which the TGI is more than 100 µM.

In turn, `Cc1cc(=O)oc2cc(O)c(CN(C)CC(=O)O)cc12` had a concentration for total growth inhibition (TGI) of more than 100 µM.

The molecule `OCC1OC(n2cnc3c(/C=C(/O)c4ccccc4)ncnc32)C(O)C1O` (stereo not drawn) registered a TGI of more than 100 µM.

In turn, `Nc1ccc(S(=O)(=O)NCc2nccs2)cc1` had a concentration for total growth inhibition (TGI) of 54.1 µM.

`CC(C)Oc1cc(O)c2c(c1)OCC=C2CCC(=O)O` displayed a total growth inhibition concentration (TGI) of 54.7 µM.

`O=Cc1ccc(-c2cccs2)s1` returned a TGI of more than 100 µM.

The molecule `CC1CCN(CC(=O)N2c3ccccc3Sc3cc4ccccc4cc32)CC1` had a TGI of more than 100 µM.

As for `CC[C@@]1(O)C(=O)OCc2c1cc1n(c2=O)Cc2cc3cc(N)ccc3nc2-1`, the GI50 (usually the concentration at which growth is held to half of that of the control) was 0.227 µM; the total growth inhibition concentration (TGI) was 1.4 µM and 0.27 µM.

As to `Cc1ccc(S(=O)(=O)N=Nc2c(O)[nH]c3c(Cl)cc(Cl)cc23)cc1`, the total growth inhibition concentration (TGI) was more than 100 µM.

Take `CNC(=S)N/N=C/c1ccc([N+](=O)[O-])s1`: the TGI was more than 10 µM.

`Fc1cccc(Cl)c1/C=N\N=C1c2ccccc2-c2ccccc21` showed a TGI of more than 100 µM.

For the molecule `COC1CC(OC(=O)c2ccccc2)C(OC(=O)c2ccccc2)C(C)O1` (stereo not drawn), the TGI is more than 100 µM.

The molecule `CN[C@@H]1C[C@H]2O[C@@](C)([C@@H]1OC)n1c3ccccc3c3c4c(c5c6ccccc6n2c5c31)C(=O)N[C@@H]4O` showed a total growth inhibition concentration (TGI) of 1.6 µM.

Turning to `O=C1c2ccccc2-n2c1nc1ccccc1c2=O`, the concentration for total growth inhibition (TGI) was 32.4 µM.

In the case of `Cn1c(=O)c2c(ncn2CN2CCN(Cn3cnc4c3c(=O)n(C)c(=O)n4C)CC2)n(C)c1=O`, the total growth inhibition concentration (TGI) was more than 100 µM.

For `CCN(CC)CCNc1n[n+]([O-])c2ccccc2[n+]1[O-]`, the TGI was > 100 µM and 31.8 µM.
